Measured values from the supplement of paper PMC10307832.

Assays:
Experiment in all cases: relative viability (nuclei count vs DMSO), 5 days (fraction); higher = more cells survive
[1] = compound: CC1=C(C=CC(=C1)[N+](=O)[O-])NS(=O)(=O)C2=C(C=CC(=C2)Cl)Cl [FH535] + CC1(C)CCC(c2ccc(Cl)cc2)=C(CN2CCN(c3ccc(C(=O)NS(=O)(=O)c4ccc(N[C@H](CCN5CCOCC5)CSc5ccccc5)c(S(=O)(=O)C(F)(F)F)c4)cc3)CC2)C1 [Navitoclax] (partner 0.5 µM)
Method in brief: (§1)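 The day after seeding in 1536-well plates, lung cancer cell lines were treated by pin tool with a single drug, or with a fixed anchor-drug dose together with five library-drug doses (not always all listed) in √10 steps. After 5 days, a combined fix-and-stain solution (final 0.05% Triton X-100, 1% formaldehyde, 1 ug/ml Hoechst) was added. Nuclei counted on 4× images gave relative viability as treated counts over vehicle counts, reported as the median of duplicate plates.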

[2] = compound: CC1=C(C=CC(=C1)[N+](=O)[O-])NS(=O)(=O)C2=C(C=CC(=C2)Cl)Cl [FH535] + Cc1cc(Nc2cc(N3CCN(C)CC3)nc(Sc3ccc(NC(=O)C4CC4)cc3)n2)n[nH]1 [Tozasertib] (partner 0.1 µM)
Method in brief: as §1

[3] = compound: CC1=C(C=CC(=C1)[N+](=O)[O-])NS(=O)(=O)C2=C(C=CC(=C2)Cl)Cl [FH535] + Nc1nc2[nH]cc(CCc3ccc(C(=O)N[C@@H](CCC(=O)O)C(=O)O)cc3)c2c(=O)[nH]1 [Pemetrexed] (partner 0.2 µM)
Method in brief: as §1

[4] = compound: CC1=C(C=CC(=C1)[N+](=O)[O-])NS(=O)(=O)C2=C(C=CC(=C2)Cl)Cl [FH535] + COc1cc2c(Oc3ccc(NC(=O)C4(C(=O)Nc5ccc(F)cc5)CC4)cc3F)ccnc2cc1OCCCN1CCOCC1 [Foretinib] (partner 0.25 µM)
Method in brief: as §1

[5] = compound: CC1=C(C=CC(=C1)[N+](=O)[O-])NS(=O)(=O)C2=C(C=CC(=C2)Cl)Cl [FH535] + COc1cccc2cc(-c3nc([C@H]4CC[C@H](C(=O)O)CC4)n4ncnc(N)c34)[nH]c12 [OSI-027] (partner 0.5 µM)
Method in brief: as §1

Row | Cell Line | relative viability ([1]; first compound 0.04 µM) | relative viability ([1]; first compound 0.1265 µM) | relative viability ([1]; first compound 0.4 µM) | relative viability ([1]; first compound 1.265 µM) | relative viability ([2]; first compound 0.04 µM) | relative viability ([2]; first compound 0.1265 µM) | relative viability ([2]; first compound 0.4 µM) | relative viability ([2]; first compound 1.265 µM) | relative viability ([3]; first compound 0.04 µM) | relative viability ([3]; first compound 0.1265 µM) | relative viability ([3]; first compound 0.4 µM) | relative viability ([3]; first compound 1.265 µM) | relative viability ([4]; first compound 0.04 µM) | relative viability ([4]; first compound 0.1265 µM) | relative viability ([4]; first compound 0.4 µM) | relative viability ([4]; first compound 1.265 µM) | relative viability ([5]; first compound 0.04 µM) | relative viability ([5]; first compound 0.1265 µM) | relative viability ([5]; first compound 0.4 µM) | relative viability ([5]; first compound 1.265 µM)
1 | NCI-H2023 | 1 | 1 | 1.04 | 0.804 | 0.296 | 0.371 | 0.354 | 0.301 | 0.194 | 0.219 | 0.249 | 0.21 | 0.876 | 0.995 | 0.699 | 0.743 | 0.362 | 0.406 | 0.385 | 0.331
2 | NCI-H2085 | 1.1 | 1.05 | 1.05 | 0.846 | 0.845 | 0.784 | 0.726 | 0.522 | 0.926 | 1.02 | 0.804 | 0.677 | 1.01 | 0.869 | 0.89 | 0.59 | 0.644 | 0.709 | 0.602 | 0.508
3 | NCI-H2087 | 0.811 | 1.11 | 0.947 | 0.518 | 0.252 | 0.223 | 0.276 | 0.212 | 0.656 | 0.694 | 0.663 | 0.624 | 1.05 | 1.07 | 0.916 | 0.766 | 0.522 | 0.454 | 0.478 | 0.421
4 | NCI-H2126 | 0.779 | 0.875 | 0.778 | 0.628 | 0.809 | 0.823 | 0.832 | 0.583 | 0.639 | 0.659 | 0.662 | 0.536 | 0.955 | 1.31 | 1.06 | 0.601 | 0.72 | 0.742 | 0.692 | 0.532
5 | NCI-H2170 | 0.612 | 0.548 | 0.597 | 0.54 | 0.674 | 0.772 | 0.69 | 0.697 | 0.262 | 0.253 | 0.252 | 0.259 | 1.06 | 0.96 | 0.988 | 0.891 | 0.72 | 0.779 | 0.619 | 0.554
6 | NCI-H2228 | 0.826 | 1.1 | 0.841 | 0.728 | 0.238 | 0.244 | 0.305 | 0.215 | 0.312 | 0.364 | 0.327 | 0.341 | 0.752 | 0.87 | 0.707 | 0.936 | 0.487 | 0.71 | 0.658 | 0.522
7 | NCI-H2347 | 0.684 | 0.792 | 0.871 | 0.705 | 0.633 | 0.461 | 0.522 | 0.631 | 0.523 | 0.405 | 0.43 | 0.41 | 0.792 | 0.865 | 1.03 | 0.701 | 0.405 | 0.486 | 0.306 | 0.37
8 | NCI-H2405 | 0.762 | 0.976 | 0.868 | 0.448 | 0.746 | 0.755 | 0.782 | 0.579 | 0.977 | 1.01 | 0.769 | 0.565 | 1.01 | 1.07 | 0.967 | 0.761 | 0.605 | 0.62 | 0.564 | 0.439
9 | NCI-H3122 | 1.02 | 1.05 | 1.01 | 0.947 | 0.329 | 0.367 | 0.475 | 0.369 | 0.199 | 0.191 | 0.188 | 0.189 | 0.888 | 0.901 | 0.924 | 0.931 | 0.919 | 1.06 | 0.885 | 0.751
10 | PC-3 [JPC-3] | 0.778 | 0.753 | 0.762 | 0.57 | 0.846 | 0.901 | 0.795 | 0.513 | 1.1 | 1.11 | 0.745 | 0.652 | 1 | 1 | 0.879 | 0.582 | 0.828 | 0.704 | 0.624 | 0.592
11 | PC-14 | 0.972 | 1.1 | 1.01 | 0.941 | 0.507 | 0.693 | 0.615 | 0.617 | 0.12 | 0.137 | 0.13 | 0.123 | 1.03 | 1.06 | 0.982 | 1.02 | 0.83 | 0.9 | 0.896 | 0.783
12 | RERF-LC-KJ | 1.15 | 0.784 | 1.11 | 0.719 | 0.515 | 0.52 | 0.473 | 0.386 | 0.466 | 0.491 | 0.469 | 0.435 | 0.927 | 0.895 | 0.869 | 0.787 | 0.538 | 0.616 | 0.6 | 0.4
13 | SK-LU-1 | 0.89 | 1.01 | 0.688 | 0.622 | 0.319 | 0.38 | 0.316 | 0.32 | 1.01 | 1.01 | 1.04 | 0.865 | 0.834 | 0.805 | 0.822 | 0.662 | 0.359 | 0.347 | 0.324 | 0.235
14 | SK-MES-1 | 1.16 | 1.22 | 1.12 | 0.929 | 0.952 | 0.954 | 0.751 | 0.658 | 0.934 | 0.906 | 0.913 | 0.849 | 0.918 | 1.05 | 0.963 | 0.814 | 0.679 | 0.573 | 0.565 | 0.435
15 | SW 1573 | 0.938 | 1.01 | 0.837 | 0.768 | 0.171 | 0.164 | 0.215 | 0.161 | 0.768 | 0.745 | 0.902 | 0.755 | 0.784 | 0.944 | 1.01 | 0.89 | 0.601 | 0.613 | 0.67 | 0.445
16 | UMC-11 | 0.312 | 0.315 | 0.298 | 0.262 | 0.189 | 0.213 | 0.196 | 0.202 | 0.653 | 0.799 | 0.788 | 0.763 | 0.967 | 1.13 | 1.03 | 0.88 | 0.413 | 0.561 | 0.431 | 0.416
